Results published in US20110070232A1, “Combination Therapy with an Antitumor Alkaloid” (Pharma Mar, S.A., priority 2008, published 2011).
Read-outs that look alike come from different tables or passages of the source.

Key:
Assay type in all cases: in vivo, mice
[1] = tested on: MRI-H-254 tumors
Procedure: Female athymic nude mice (Harlan Sprague Dawley, Madison, Wis.) were utilized for all experiments. Animals were housed in ventilated rack caging with food and water ad libitum. The mice were acclimated for at least 5 days prior to tumor implantation with tumor fragments.
Treatments were initiated on DPI 16.
(§1) Tumor size measurements were recorded twice weekly from the treatment initiation until the termination of the study.
(§2) Mean, standard deviation and standard error of the mean were determined for tumor volume for all animal groups at all assessments. Student's t test was performed on tumor volumes at each measurement day, including at the end of the study, to determine whether there were any statistically significant differences between combination treatment groups and single monotherapy treatment groups.

[2] = tested on: NCI-H460 tumors; conditions: alone or with PM00104 0.9 mg/kg/day IV
Procedure: Female athymic nude mice (Harlan Sprague Dawley, Madison, Wis.) were utilized for all experiments. Animals were housed in ventilated rack caging with food and water ad libitum. The mice were acclimated for at least 5 days prior to tumor implantation.
The tumor model used in this study was NCI-H460 cell line which is a human NSCLC cell line obtained from the ATCC (Manassas, Va.). […] Cells from in vitro passage 7 were implanted SC into study mice using a 1 ml syringe with a 13G trocar: 5×10^6 cells/mouse in 0.2 ml 50% Matrigel/50% RPMI medium of NCI-H460 without serum or antibiotics. Bacterial culture was taken on cells used to implant the study.
Treatments were initiated on DPI 9.
Tumor size measurements were recorded 2-3 times/week from the treatment initiation until the termination of the study.
as §2

[3] = tested on: PLC/PRF/5 tumors
Procedure: (§3) Female athymic nude mice (Harlan Sprague Dawley, Madison, Wis.) were utilized for all experiments. Animals were housed in ventilated rack caging with food and water ad libitum. The mice were acclimated for at least 5 days prior to tumor implantation with a tumor cell suspension.
The tumor model used in these studies was PLC/PRF/5 cell line, which was obtained from the ATCC (Manassas, Va.).
PLC/PRF/5 were grown in Eagle's minimum essential medium supplemented with 10% FBS and 1% L-glutamine. Each animal was implanted SC on the right flank, using a 13G trochar and 1 mL syringe, with 5×10^6 PLC/PRF/5 cells in a 0.2 mL suspension of 50% Matrigel and 50% serum free MEM medium, without antibiotics. Bacterial cultures were performed on aliquots of the cells prepared for implantation.
Treatments were initiated on DPI 14.
as §1, §2

[4] = tested on: HepG2 tumors
Procedure: as §3
The tumor model used in these studies was HepG2 cell line, which was obtained from the ATCC (Manassas, Va.).
HepG2 cells were grown in MEM supplemented with 10% FBS, 1.5 g/L sodium bicarbonate, 0.1 mM non-essential amino acids, 1.0 mM sodium pyruvate, and 2 mM L-glutamine. Each animal was implanted SC on the right flank, using a 13G trochar, with 5×10^6 HepG2 cells in a 0.2 mL suspension of 50% Matrigel and 50% serum free medium, without antibiotics. Bacterial cultures were performed on aliquots of the cells prepared for implantation.
Treatments were initiated on DPI 19.
as §1, §2

[5] = day 20, PM00104 0.90, cisplatin 3, irinotecan 10, paclitaxel 12.5 mg/kg/day
[6] = day 20, PM00104 0.90, cisplatin 5, irinotecan 18, paclitaxel 25 mg/kg/day
[7] = day 23, PM00104 0.90, cisplatin 3, irinotecan 10, paclitaxel 12.5 mg/kg/day
[8] = day 26, PM00104 0.90, cisplatin 3, irinotecan 10, paclitaxel 12.5 mg/kg/day
[9] = day 29, PM00104 0.90, cisplatin 3, irinotecan 10, paclitaxel 12.5 mg/kg/day
[10] = day 40, PM00104 0.90, cisplatin 3, irinotecan 10, paclitaxel 12.5 mg/kg/day
[11] = day 40, PM00104 0.90, cisplatin 5, irinotecan 18, paclitaxel 25 mg/kg/day
[12] = day 48, PM00104 0.90, cisplatin 3, irinotecan 10, paclitaxel 12.5 mg/kg/day
[13] = day 48, PM00104 0.90, cisplatin 5, irinotecan 18, paclitaxel 25 mg/kg/day
[14] = day 14, PM00104 0.90, sorafenib 60 mg/kg/day
[15] = day 22, PM00104 0.90, sorafenib 30 mg/kg/day
[16] = day 22, PM00104 0.90, sorafenib 60 mg/kg/day
[17] = day 25, PM00104 0.90, sorafenib 60 mg/kg/day
[18] = day 28, PM00104 0.90, sorafenib 60 mg/kg/day
[19] = day 32, PM00104 0.90, sorafenib 60 mg/kg/day
[20] = day 39, PM00104 0.90, sorafenib 60 mg/kg/day
[21] = day 42, PM00104 0.90, sorafenib 60 mg/kg/day
[22] = day 19, PM00104 0.90, sorafenib 30 mg/kg/day
[23] = day 26, PM00104 0.90, sorafenib 60 mg/kg/day
[24] = day 30, PM00104 0.90, sorafenib 30 mg/kg/day
[25] = day 30, PM00104 0.90, sorafenib 60 mg/kg/day
[26] = day 33, PM00104 0.90, sorafenib 60 mg/kg/day

CCc1c2c(nc3ccc(OC(=O)N4CCC(N5CCCCC5)CC4)cc13)-c1cc3c(c(=O)n1C2)COC(=O)[C@]3(O)CC [irinotecan] was tested, and the “% Inhibition” value ([1]; day 16, PM00104 0.90, cisplatin 3, irinotecan 10, paclitaxel 12.5 mg/kg/day) was 1.6%, the “% Inhibition” value ([1]; day 16, PM00104 0.90, cisplatin 5, irinotecan 18, paclitaxel 25 mg/kg/day) was 1.9% and the “% Inhibition” value [1, 5] was 7.5%. The “% T/C” value [1, 5] was 92.5%, the “% Inhibition” value [1, 6] was 7.9% and the “% T/C” value [1, 6] was 92.1%. For the same molecule, the “% Inhibition” value [1, 7] was 7.0%, the “% T/C” value [1, 7] was 93.0% and the “% Inhibition” value ([1]; day 23, PM00104 0.90, cisplatin 5, irinotecan 18, paclitaxel 25 mg/kg/day) was 16.0%. The “% Inhibition” value [1, 8] was 9.8%, the “% T/C” value [1, 8] was 90.2% and the “% Inhibition” value ([1]; day 26, PM00104 0.90, cisplatin 5, irinotecan 18, paclitaxel 25 mg/kg/day) was 25.0%. For the same molecule, the “% Inhibition” value [1, 9] was 11.4%, the “% T/C” value [1, 9] was 88.6% and the “% Inhibition” value [1, 10] was 50.8%. The “% T/C” value [1, 10] was 49.2%, the “% Inhibition” value [1, 11] was 59.9% and the “% T/C” value [1, 11] was 40.1%. For the same molecule, the “% Inhibition” value [1, 12] was 58.6%, the “% T/C” value [1, 12] was 41.4% and the “% Inhibition” value [1, 13] was 65.1%. For the same molecule, the “% T/C” value [1, 13] was 34.9%.

CO[C@H]1C[C@@H]2CC[C@@H](C)[C@@](O)(O2)C(=O)C(=O)N2CCCC[C@H]2C(=O)O[C@H]([C@H](C)C[C@@H]2CC[C@@H](OC(=O)C(C)(CO)CO)[C@H](OC)C2)CC(=O)[C@H](C)/C=C(\C)[C@@H](O)[C@@H](OC)C(=O)[C@H](C)C[C@H](C)/C=C/C=C/C=C/1C [temsirolimus] was tested, and the “% T/C on day 9” value ([2]; Temsirolimus 10 mg/kg/day IP) was 101.9%, the “% T/C on day 13” value ([2]; Temsirolimus 10 mg/kg/day IP) was 60.4% and the “% T/C on day 16” value ([2]; Temsirolimus 10 mg/kg/day IP) was 55.5%. For the same molecule, the “% T/C on day 21” value ([2]; Temsirolimus 10 mg/kg/day IP) was 40.5%, the “% T/C on day 24” value ([2]; Temsirolimus 10 mg/kg/day IP) was 18.9% and the “% T/C on day 30” value ([2]; Temsirolimus 10 mg/kg/day IP) was 22.0%. The “% T/C on day 38” value ([2]; Temsirolimus 10 mg/kg/day IP) was 52.0%, the “% T/C on day 41” value ([2]; Temsirolimus 10 mg/kg/day IP) was 66.4% and the “% T/C on day 9” value ([2]; Temsirolimus 20 mg/kg/day IP) was 104.4%. The “% T/C on day 13” value ([2]; Temsirolimus 20 mg/kg/day IP) was 66.4%, the “% T/C on day 16” value ([2]; Temsirolimus 20 mg/kg/day IP) was 68.4% and the “% T/C on day 21” value ([2]; Temsirolimus 20 mg/kg/day IP) was 46.8%. The “% T/C on day 24” value ([2]; Temsirolimus 20 mg/kg/day IP) was 35.9%, the “% T/C on day 27” value ([2]; Temsirolimus 20 mg/kg/day IP) was 15.9% and the “% T/C on day 30” value ([2]; Temsirolimus 20 mg/kg/day IP) was 23.9%. For the same molecule, the “% T/C on day 38” value ([2]; Temsirolimus 20 mg/kg/day IP) was 61.2% and the “% T/C on day 41” value ([2]; Temsirolimus 20 mg/kg/day IP) was 65.2%.

In the case of CNC(=O)c1cc(Oc2ccc(NC(=O)Nc3ccc(Cl)c(C(F)(F)F)c3)cc2)ccn1 [sorafenib], the “% T/C” value ([3]; day 14, PM00104 0.90, sorafenib 30 mg/kg/day) is reported as 99.5%, the “% Inhibition” value [3, 14] is reported as 1.5% and the “% T/C” value [3, 14] is reported as 98.5%. For the same molecule, the “% Inhibition” value ([3]; day 18, PM00104 0.90, sorafenib 60 mg/kg/day) was 26.4%, the “% T/C” value [3, 15] was 79.5% and the “% Inhibition” value [3, 16] was 47.8%. The “% T/C” value [3, 16] was 52.2%, the “% Inhibition” value [3, 17] was 46.6% and the “% T/C” value [3, 17] was 53.4%. The “% Inhibition” value [3, 18] was 56.6%, the “% T/C” value [3, 18] was 43.4% and the “% Inhibition” value [3, 19] was 57.1%. For the same molecule, the “% T/C” value [3, 19] was 42.9%, the “% T/C” value ([3]; day 35, PM00104 0.90, sorafenib 30 mg/kg/day) was 54.7% and the “% T/C” value ([3]; day 35, PM00104 0.90, sorafenib 60 mg/kg/day) was 36.5%. The “% T/C” value ([3]; day 39, PM00104 0.90, sorafenib 30 mg/kg/day) was 59.3%, the “% Inhibition” value [3, 20] was 49.8% and the “% T/C” value [3, 20] was 50.2%. The “% Inhibition” value [3, 21] was 44.6%, the “% T/C” value [3, 21] was 55.4% and the “% Inhibition” value ([4]; day 19, PM00104 0.60, sorafenib 30 mg/kg/day) was −1.4%. For the same molecule, the “% Inhibition” value ([4]; day 19, PM00104 0.60, sorafenib 60 mg/kg/day) was 11.2%, the “% Inhibition” value [4, 22] was −1.4% and the “% T/C” value [4, 22] was 101.4%. The “% Inhibition” value ([4]; day 19, PM00104 0.90, sorafenib 60 mg/kg/day) was 11.2%, the “% Inhibition” value ([4]; day 22, PM00104 0.60, sorafenib 30 mg/kg/day) was −23.5% and the “% Inhibition” value ([4]; day 22, PM00104 0.60, sorafenib 60 mg/kg/day) was 21.3%. For the same molecule, the “% Inhibition” value [4, 15] was −23.5%, the “% T/C” value [4, 15] was 123.5% and the “% Inhibition” value [4, 16] was 21.3%. The “% T/C” value [4, 16] was 78.7%, the “% Inhibition” value ([4]; day 26, PM00104 0.60, sorafenib 30 mg/kg/day) was 8.7% and the “% Inhibition” value ([4]; day 26, PM00104 0.60, sorafenib 60 mg/kg/day) was 39.9%. The “% Inhibition” value ([4]; day 26, PM00104 0.90, sorafenib 30 mg/kg/day) was 8.7%, the “% Inhibition” value [4, 23] was 39.9% and the “% T/C” value [4, 23] was 60.1%. The “% Inhibition” value ([4]; day 30, PM00104 0.60, sorafenib 30 mg/kg/day) was −0.9%, the “% Inhibition” value ([4]; day 30, PM00104 0.60, sorafenib 60 mg/kg/day) was 38.2% and the “% Inhibition” value [4, 24] was −0.9%. The “% T/C” value [4, 24] was 100.9%, the “% Inhibition” value [4, 25] was 38.2% and the “% T/C” value [4, 25] was 61.8%. For the same molecule, the “% Inhibition” value ([4]; day 33, PM00104 0.60, sorafenib 30 mg/kg/day) was 9.6%, the “% Inhibition” value ([4]; day 33, PM00104 0.60, sorafenib 60 mg/kg/day) was 33.8% and the “% Inhibition” value ([4]; day 33, PM00104 0.90, sorafenib 30 mg/kg/day) was 9.6%. The “% Inhibition” value [4, 26] was 33.8% and the “% T/C” value [4, 26] was 66.2%.
